Measured values taken from patent US4160768A, “Anti-inflammatory 3-benzofuranyl imidazothiazole” (Diamond Shamrock Corporation, priority 1978, dated 1979).
Counter-ions that a name gives are not always drawn. Like-named read-outs stand apart in the source and are kept apart here.

Experiments:
[1] = carrageenin-induced edema in the hind paw of the rat (modified Winter et al.); type: in vivo; conditions: for ED50: dose which reduced edema formation by about 25% or more vs mean control in 50% of the animals
Method: (§1) The procedure used for measuring the inhibition of carrageenin-induced edema is a slight modification of the method of Winter et al., Proc. Soc. Explt. Biol. Med. 111: 544 (1962). The device used for measurement of the paw volume is an adaptation of the water displacement procedure described by Adamkiewicz et al., Can. J. Biochem. Physiol. 33: 332 (1955). The above compounds were studied for their effectiveness in preventing the edema caused by the intraplantar injection of 0.05 ml of a sterile 1.0% solution of carrageenin. Compounds were administered orally, except when indicated as intraperitoneally (i.p.), one hour prior to the injection of the carrageenin into the left hind paw of rats. At peak swelling time (3 hours) the volume of edema was calculated by differential paw volumes.
Table I (in which Ph=phenyl) sets forth results obtained at the indicated dosages with compounds (or their salts) of the formula [drawing 8]
Following the procedure set forth in Example 4, hydrated compounds according to the following formula were evaluated for antiinflammatory effect with the results shown in Table II: [drawing 9]
Certain of the compounds of the invention were further tested to determine their ED50 values. […] Typical results of these tests appear in Table III.

[2] = adrenalectomized assay (carrageenin edema in adrenalectomized rats); type: in vivo, Adrenalectomized Sprague Dawley Male Rats; conditions: Rattus norvegicus, po, 3 h, read-out: % Reduction (adrenalectomized rats)
Method: as §1
Next, certain of the compounds were subjected to a secondary screen designated the adrenalectomized assay. In this series of tests, the method used was identical to that described above, except that the animals used were adrenalectomized several days prior to assay. Since the results in the nonadrenalectomized animals were similar to those obtained in the adrenalectromized animals, it can be inferred that the antiinflammatory activity of the test compounds was not caused by the release of endogeneous adrenocortical steriods.

[3] = adjuvant-induced arthritis test (Newbould); type: in vivo, rat
Description: Selected compounds were further subjected to advanced evaluations. Specifically, in view of the interesting activity of compounds 1 and 9, those compounds were further subjected to the adjuvant-induced arthritis test. This test requires one month (from day 0 to day 31). In the first seventeen days (0-17), the disease is in a developing stage, while for the remainder of the month (18-31) the disease is fully developed.
The method is essentially that of Newbould, Brit. J. Pharmacol. 21: 127, 1963. The test compounds were studied in the developing arthritis state and in the established arthritic state. Separate groups of twelve rats were administered the compounds orally using methylcellulose as the vehicle. In the study on the developing disease, administration of the test compounds begins on day 1 and on day 2 each animal is injected with 0.05 ml/kg of a 0.5% suspension of heat-killed Mycobacterium tuberculosis into the planter surface of the left hind paw. Foot volumes were measured by a water displacement device on the day of administration of the Mycobacterium and again on days 3, 10 and 17. The test compounds were administered once daily. Body weights were recorded daily and the animals were examined for the spread of the inflammation and the degree of secondary lesions. For study in the established disease, another group of rats are injected with the Mycobacterium and foot volumes are measured. After twenty days volumes are again measured and administration of the test compounds begins and continues for eleven days. Foot volume measurements are repeated on day 27 and day 31. The extent of the spread of the inflammation and the degree of lesions are recorded daily as are the body weights. The effect of the test compounds is measured by the percentage reduction in left hind paw volumes as compared to the hind paw volumes of the control groups.

[4] = Rattus norvegicus, po, 3 h, Table I, 40 mg/kg, oral, 1 h before carrageenin, 3 h, read-out: Reduction % (carrageenin edema)
[5] = Rattus norvegicus, po, 3 h, Table I, 50 mg/kg, oral, 1 h before carrageenin, 3 h, read-out: Reduction % (carrageenin edema)
[6] = Rattus norvegicus, po, 3 h, Table I, 25 mg/kg, oral, 1 h before carrageenin, 3 h, read-out: Reduction % (carrageenin edema)

C#CC(C)[N+]1=C2SC=C(c3ccc(Br)cc3)N2CC1 (stereo not drawn) [Compound 23]
inhibition in vivo at 40 mg/kg [1, 4]: 27%

C1=C(c2ccccc2)N2CCN=C2S1 [Compound 1]
inhibition in vivo at 50 mg/kg [2]: 32%
inhibition in vivo at 50 mg/kg [1, 5]: 47%
ED50 ([1]; Rattus norvegicus, po, 3 h): 25 mg/kg
% reduction in swelling, hind paws ([3]; 20 mg/kg, day 3, developing (prophylactic)): 18%
% reduction in swelling, hind paws ([3]; 20 mg/kg, day 10, developing (prophylactic)): 13%
% reduction in swelling, hind paws ([3]; 20 mg/kg, day 17, developing (prophylactic)): 18%
% reduction in swelling, hind paws ([3]; 20 mg/kg, day 20, developed (therapeutic)): 5%
% reduction in swelling, hind paws ([3]; 20 mg/kg, day 27, developed (therapeutic)): 0%
% reduction in swelling, hind paws ([3]; 20 mg/kg, day 31, developed (therapeutic)): 0%
% reduction in swelling, hind paws ([3]; 40 mg/kg, day 3, developing (prophylactic)): 10%
% reduction in swelling, hind paws ([3]; 40 mg/kg, day 10, developing (prophylactic)): 21%
% reduction in swelling, hind paws ([3]; 40 mg/kg, day 17, developing (prophylactic)): 43%
% reduction in swelling, hind paws ([3]; 40 mg/kg, day 20, developed (therapeutic)): 4%
% reduction in swelling, hind paws ([3]; 40 mg/kg, day 27, developed (therapeutic)): 14%
% reduction in swelling, hind paws ([3]; 40 mg/kg, day 31, developed (therapeutic)): 8%

OC1(c2ccccc2)CSC2=NCCCN21 (stereo not drawn) [Compound 37]
Reduction (%) (carrageenin edema) ([1]; Table II, 50 mg/kg, oral): 52%

CC1CN2C(c3ccc(Cl)cc3)=CSC2=N1 (stereo not drawn) [Compound 16]
inhibition in vivo at 50 mg/kg [2]: 16%
inhibition in vivo at 50 mg/kg [1, 5]: 58%

CC1=C(c2ccccc2)SC2=NCCN21 [Compound 15]
inhibition in vivo at 50 mg/kg [1, 5]: 53%

Clc1ccc(C2=CSC3=NCCCN23)cc1 [Compound 28]
inhibition in vivo at 25 mg/kg [1, 6]: 29%

Clc1ccc(C[N+]2=C3SC=C(c4ccccc4)N3CC2)cc1Cl [Compound 20]
inhibition in vivo at 20 mg/kg ([1]; Rattus norvegicus, po, 3 h, Table I, 20 mg/kg, oral, 1 h before carrageenin, 3 h, read-out: Reduction % (carrageenin edema)): 36%

CC1=C(c2ccc(Cl)cc2)N2CCN=C2S1 [Compound 6]
inhibition in vivo at 25 mg/kg [2]: 19%
inhibition in vivo at 25 mg/kg [1, 6]: 45%

O=C(O)CC1=C(c2ccccc2)N2CCN=C2S1 [Compound 19, 3-phenyl-5,6-dihydro-4H-imidazo[2,1-b] thiazo-2-yl-acetic acid hydrobromide]
inhibition in vivo at 100 mg/kg ([1]; Rattus norvegicus, ip, 3 h, Table I, 100 mg/kg i.p., 1 h before carrageenin, 3 h, read-out: Reduction % (carrageenin edema)): 24%

OC1(c2ccccc2)CSC2=NCCN21 (stereo not drawn) [Compound 34]
Reduction (%) (carrageenin edema) ([1]; Table II, 100 mg/kg, oral): 70%

CC1CN2C(C(C)(C)C)=CSC2=N1 (stereo not drawn) [Compound 12]
inhibition in vivo at 50 mg/kg [1, 5]: 54%

CC1=C(c2ccc(Cl)cc2)N2CCCN=C2S1 [Compound 33]
inhibition in vivo at 10 mg/kg ([1]; Rattus norvegicus, po, 3 h, Table I, 10 mg/kg, oral, 1 h before carrageenin, 3 h, read-out: Reduction % (carrageenin edema)): 22%

CC(C)(C)C1=CSC2=NCCN12 [Compound 11]
Reduction (%) (carrageenin edema) ([1]; Table I, 50 mg/kg, oral, 1 h before carrageenin, 3 h, 50 mg/kg): 48%

CCC1=C(c2ccccc2)N2CCCN=C2S1 [Compound 29, 2-ethyl-3-phenyl-4,5,6,7-tetrahydrothiazole[3,2-a] pyrimidine hydrobromide]
inhibition in vivo at 25 mg/kg [2]: 18%
inhibition in vivo at 50 mg/kg [1, 5]: 76%

CC1CN2C(c3ccc(Cl)c(Cl)c3)=CSC2=N1 (stereo not drawn) [Compound 18]
inhibition in vivo at 50 mg/kg [1, 5]: 42%

C1=C(c2ccccc2)N2CCCN=C2S1 [Compound 30]
inhibition in vivo at 40 mg/kg [1, 4]: 25%

COc1ccc(C2(O)CSC3=NCCCN32)cc1 (stereo not drawn) [Compound 39]
Reduction (%) (carrageenin edema) ([1]; Table II, 40 mg/kg, oral): 27%

CC1=C(c2ccccc2)N2CCN=C2S1 [Compound 14]
inhibition in vivo at 50 mg/kg [1, 5]: 49%

OC1(c2ccc(Cl)cc2)CSC2=NCCCN21 (stereo not drawn) [Compound 38]
Reduction (%) (carrageenin edema) ([1]; Table II, 100 mg/kg, oral): 76%

C1=C(c2cc3ccccc3o2)N2CCN=C2S1 [Compound 27, 3-(2-benzofuranyl)-5,6-dihydro-4H-imidazo[2,1-b] thiazole]
inhibition in vivo at 40 mg/kg [1, 4]: 40%

CC1=CSC2=NCCN12 [Compound 9]
inhibition in vivo at 25 mg/kg [2]: 46%
inhibition in vivo at 50 mg/kg [1, 5]: 46%
ED50 ([1]; Rattus norvegicus, po, 3 h): 20 mg/kg
% reduction in swelling, hind paws ([3]; 24 mg/kg, day 3, developing (prophylactic)): 21%
% reduction in swelling, hind paws ([3]; 24 mg/kg, day 10, developing (prophylactic)): 23%
% reduction in swelling, hind paws ([3]; 24 mg/kg, day 17, developing (prophylactic)): 15%
% reduction in swelling, hind paws ([3]; 24 mg/kg, day 20, developed (therapeutic)): 5%
% reduction in swelling, hind paws ([3]; 24 mg/kg, day 27, developed (therapeutic)): 0%
% reduction in swelling, hind paws ([3]; 24 mg/kg, day 31, developed (therapeutic)): 0%
% reduction in swelling, hind paws ([3]; 50 mg/kg, day 3, developing (prophylactic)): 18%
% reduction in swelling, hind paws ([3]; 50 mg/kg, day 10, developing (prophylactic)): 17%
% reduction in swelling, hind paws ([3]; 50 mg/kg, day 17, developing (prophylactic)): 6%
% reduction in swelling, hind paws ([3]; 50 mg/kg, day 20, developed (therapeutic)): 3%
% reduction in swelling, hind paws ([3]; 50 mg/kg, day 27, developed (therapeutic)): 3%
% reduction in swelling, hind paws ([3]; 50 mg/kg, day 31, developed (therapeutic)): 7%

CC1=CSC2=NC(C)CN12 (stereo not drawn) [Compound 13]
inhibition in vivo at 50 mg/kg [1, 5]: 24%

CCC1=C(c2ccc(Cl)cc2)N2CCN=C2S1 [Compound 5]
inhibition in vivo at 25 mg/kg [2]: 15%
inhibition in vivo at 25 mg/kg [1, 6]: 33%

CC1=CSC2=NCCN12 [Compound 25]
inhibition in vivo at 150 mg/kg ([1]; Rattus norvegicus, po, 3 h, Table I, 150 mg/kg, oral, 1 h before carrageenin, 3 h, read-out: Reduction % (carrageenin edema)): 44%

Cc1ccc(C2=CSC3=NCCN23)cc1C [Compound 2]
inhibition in vivo at 50 mg/kg [1, 5]: 27%

O=[N+]([O-])c1ccc(C2=CSC3=NCCCN23)cc1 [Compound 32]
inhibition in vivo at 25 mg/kg [1, 6]: 20%

C#CC[N+]1=C2SC=C(C)N2CC1 [Compound 26]
inhibition in vivo at 40 mg/kg [1, 4]: 31%

CCC1=C(c2ccccc2)N2CCN=C2S1 [Compound 4]
inhibition in vivo at 25 mg/kg [2]: 31%
inhibition in vivo at 25 mg/kg [1, 6]: 41%

CC1SC2=NCCN2C1(O)c1ccccc1 (stereo not drawn) [Compound 35]
Reduction (%) (carrageenin edema) ([1]; Table II, 150 mg/kg, oral): 68%

CSC1=C(C(C)(C)C)N2CCN=C2S1 [Compound 3, 2-methylthio-3-t-butyl-5,6-dihydro-4H-imidazo-[2,1-b] thiazole hydrobromide]
inhibition in vivo at 50 mg/kg [1, 5]: 26%

Brc1ccc(C2=CSC3=NCCN23)cc1 [Compound 21]
inhibition in vivo at 40 mg/kg [1, 4]: 49%

CC(C)(C)C1=CSC2=NCCN12 [Compound 8]
inhibition in vivo at 25 mg/kg [2]: 23%
inhibition in vivo at 50 mg/kg [1, 5]: 56%

ClCC=CC[N+]1=C2SC=C(c3ccc(Br)cc3)N2CC1 [Compound 24]
inhibition in vivo at 60 mg/kg ([1]; Rattus norvegicus, po, 3 h, Table I, 60 mg/kg, oral, 1 h before carrageenin, 3 h, read-out: Reduction % (carrageenin edema)): 20%

OC1(c2ccc(Cl)cc2)CSC2=NCCN21 (stereo not drawn) [Compound 36]
Reduction (%) (carrageenin edema) ([1]; Table II, 25 mg/kg, oral): 57%

C#CC[N+]1=C2SC=C(c3ccc(Br)cc3)N2CC1 [Compound 22]
inhibition in vivo at 100 mg/kg ([1]; Rattus norvegicus, po, 3 h, Table I, 100 mg/kg, oral, 1 h before carrageenin, 3 h, read-out: Reduction % (carrageenin edema)): 36%

C1=C(c2cccc3ccccc23)N2CCN=C2S1 [Compound 10]
inhibition in vivo at 50 mg/kg [2]: 18%
inhibition in vivo at 50 mg/kg [1, 5]: 58%

CC1CN2C(c3ccc([N+](=O)[O-])cc3)=CSC2=N1 (stereo not drawn) [Compound 17]
inhibition in vivo at 50 mg/kg [2]: 60%
inhibition in vivo at 50 mg/kg [1, 5]: 48%

Brc1ccc(C2=CSC3=NCCN23)cc1 [Compound 7]
inhibition in vivo at 50 mg/kg [1, 5]: 70%

CC1=C(c2ccccc2)N2CCCN=C2S1 [Compound 31]
inhibition in vivo at 40 mg/kg [1, 4]: 48%
